According to US9644175B2, “Antimicrobial amino-salicylic acid derivatives” (BASF SE, priority 2009, dated 2017):

Legend:
Format in all cases: cell-based
[1] = tested on: Escherichia coli ATCC 10536; test: Suspension test, bactericidal activity (modified EN 1040); details: room temperature, start about 10^7 cfu/ml
Experimental: (§1) The following examples illustrate the invention. Unless indicated otherwise, percentages refer to percent by weight (b.w.), room temperature denotes a temperature from the range 20-24° C. The determination of bactericidal activity and fungicidal activity in surfactants or shampoo formulations of the present invention is measured in a suspension test according to trivial modifications of the European Standard methods EN 1040 and EN 1275, respectively. The bactericidal activity of the compounds of the present invention is measured in a suspension test (trivial modification of the European Standard method EN 1040). Substances listed in Table 1 are tested against gram positive and gram negative bacteria. The compound of the invention is dissolved in ethanol resulting in a 1% b.w. stock solution. The cell densities of the bacterial suspensions used as inoculums for the suspension test are as follows (cfu=colony forming units): [table] For the suspension tests, an appropriate concentration of the test compound is mixed with a bacterial suspension resulting in a final cell count in the mixture of about 10^7 cfu/ml. These test mixtures are incubated at room temperature (22° C.+/−2° C.) and aliquots of 1 ml test mixture containing the test bacteria are taken after set contact times for determination of the residual cell count of test bacteria. For inactivation of the antimicrobial compounds, the 1 ml aliquots are diluted in 1:10 steps with an aqueous solution containing 10% of Tween 80 (a polyethoxylated sorbitan ester surfactant), 3% lecithin, 0.1% histidine and 0.5% sodium thiosulfate.

[2] = tested on: Pseudomonas aeruginosa ATCC15442; test: as above; details: room temperature, start about 10^7 cfu/ml
Experimental: as §1

[3] = tested on: Staphylococcus aureus ATCC 6538; test: as above; details: room temperature, start about 10^7 cfu/ml
Experimental: as §1

[4] = tested on: Candida albicans ATCC 10231; test: Suspension test, fungicidal activity (modified EN 1275), Table A; details: contact time 24 h
Experimental: The following examples illustrate the invention. Unless indicated otherwise, percentages refer to percent by weight (b.w.), room temperature denotes a temperature from the range 20-24° C. The determination of bactericidal activity and fungicidal activity in surfactants or shampoo formulations of the present invention is measured in a suspension test according to trivial modifications of the European Standard methods EN 1040 and EN 1275, respectively. For the suspension tests, an appropriate concentration of the test compound is mixed with a bacterial suspension resulting in a final cell count in the mixture of about 10^7 cfu/ml. These test mixtures are incubated at room temperature (22° C.+/−2° C.) and aliquots of 1 ml test mixture containing the test bacteria are taken after set contact times for determination of the residual cell count of test bacteria. For inactivation of the antimicrobial compounds, the 1 ml aliquots are diluted in 1:10 steps with an aqueous solution containing 10% of Tween 80 (a polyethoxylated sorbitan ester surfactant), 3% lecithin, 0.1% histidine and 0.5% sodium thiosulfate. The fungicidal activity of the compounds of the present invention is measured in a suspension test (trivial modification of the European Standard method EN 1275). The compound of the invention is dissolved in ethanol resulting in a 1% b.w. solution of the compound. […]

[5] = tested on: Escherichia coli ATCC 10536; test: Suspension test of compound in surfactants and shampoo; details: 24 h, start 10^5 cfu/ml
Experimental: (§2) The following examples illustrate the invention. Unless indicated otherwise, percentages refer to percent by weight (b.w.), room temperature denotes a temperature from the range 20-24° C. The determination of bactericidal activity and fungicidal activity in surfactants or shampoo formulations of the present invention is measured in a suspension test according to trivial modifications of the European Standard methods EN 1040 and EN 1275, respectively. The compound of the invention is incorporated in an anionic surfactant, for example sodium laureth sulphate (Epicol ESB 70), or a non-ionic surfactant such as decyl glucoside (Plantacare 2000UP), or an amphoteric surfactant, for example cocamidopropyl betaine (Tego Betain F50). Each of the surfactants is tested at 10% a.i. Furthermore, the 5-amino-salicylic acid derivatives of the invention are incorporated in a typical shampoo formulation with the following composition: • 0.01 to 5% by weight of 5 amino-salicylic acid derivative, • 7.0% by weight sodium laureth-2-sulfate, • 2.5% by weight decyl glucoside • 4.0% by weight cocamidopropyl betaine, • 1.0% by weight NaCl and • water ad 100%. • pH 6 is adjusted with NaOH. The surfactant solutions and shampoo formulations tested contain 1% b.w. of the compound of the invention. The cell densities of the bacterial suspensions used as inoculums for the suspension tests are as follows (cfu=colony forming units): [table] The cell density in the test is adjusted to 10^5 cfu/ml. These test mixtures are incubated at room temperature (22° C.+/−2° C.) and aliquots of 1 ml test mixture are taken after set contact times for determination of the residual cell count. For inactivation of the antimicrobial compounds, the 1 ml aliquots are diluted in 1:10 steps with an aqueous solution containing 10% Tween 80 (a polyethoxylated sorbitan ester surfactant), 3% lecithin, 0.1% histidine and 0.5% sodium thiosulfate.

[6] = tested on: Pseudomonas aeruginosa ATCC 15442; test: as above; details: 24 h, start 10^5 cfu/ml
Experimental: as §2

[7] = tested on: Staphylococcus aureus ATCC 6538; test: as above; details: 24 h, start 10^5 cfu/ml
Experimental: as §2

[8] = tested on: Aspergillus niger ATCC 6275; test: as above; details: 7 days, start 10^5 cfu/ml
Experimental: as §2, with “respectively. The fungicidal activity of the compounds of the present invention is measured in a suspension test (trivial modification of the European Standard method EN 1275).” for “respectively.”

[9] = tested on: Candida albicans AJCC 10231; test: as above; details: 24 h, start 10^5 cfu/ml
Experimental: as §2, with “respectively. The fungicidal activity of the compounds of the present invention is measured in a suspension test (trivial modification of the European Standard method EN 1275).” for “respectively.”

[10] = 1% b.w. compound in amphoteric surfactant (cocamidopropyl betaine, 10% a.i.)
[11] = 1% b.w. compound in anionic surfactant (sodium laureth sulfate, 10% a.i.)
[12] = 1% b.w. compound in non-ionic surfactant (decyl glucoside, 10% a.i.)
[13] = 1% b.w. compound in shampoo formulation, pH 6

CCCCCC(=O)Nc1ccc(O)c(C(=O)O)c1 [compound 596, 5-hexanoylamino-salicylic acid]
log reduction ([1]; contact time 30 min): >5 log | residual cell count ([1]; contact time 30 min): <100 cfu/ml | log reduction ([2]; contact time 30 min): >5 log | residual cell count ([2]; contact time 30 min): <100 cfu/ml | log reduction ([3]; contact time 30 min): >5 log | residual cell count ([3]; contact time 30 min): <100 cfu/ml | log reduction [4]: >4 log | residual cell count [4]: <100 cfu/ml | log reduction [5, 10]: >3 log | residual cell count [5, 10]: <100 cfu/ml | log reduction [5, 11]: >3 log | residual cell count [5, 11]: <100 cfu/ml | log reduction [5, 12]: >3 log | residual cell count [5, 12]: <100 cfu/ml | log reduction [5, 13]: >3 log | residual cell count [5, 13]: <100 cfu/ml | log reduction [6, 10]: >3 log | residual cell count [6, 10]: <100 cfu/ml | log reduction [6, 11]: >3 log | residual cell count [6, 11]: <100 cfu/ml | log reduction [6, 12]: >3 log | residual cell count [6, 12]: <100 cfu/ml | log reduction [7, 10]: >3 log | residual cell count [7, 10]: <100 cfu/ml | log reduction [7, 11]: >3 log | residual cell count [7, 11]: <100 cfu/ml | log reduction [7, 12]: >3 log | residual cell count [7, 12]: <100 cfu/ml | log reduction [7, 13]: >3 log | residual cell count [7, 13]: <100 cfu/ml | log reduction [8, 10]: 2.3 log | residual cell count [8, 10]: 1.2 × 10^3 cfu/ml | log reduction [8, 11]: 2.1 log | residual cell count [8, 11]: 1.7 × 10^3 cfu/ml | log reduction [8, 12]: 1.1 log | residual cell count [8, 12]: 1.9 × 10^4 cfu/ml | log reduction [9, 10]: >3 log | residual cell count [9, 10]: <100 cfu/ml | log reduction [9, 11]: 1.2 log | residual cell count [9, 11]: 1.4 × 10^4 cfu/ml | log reduction [9, 12]: >3 log | residual cell count [9, 12]: <100 cfu/ml

CCCCCCCCCCCC(=O)Nc1ccc(O)c(C(=O)O)c1 [compound 597]
log reduction ([3]; contact time 24 h): >5 log | residual cell count ([3]; contact time 24 h): 1.6 × 10^3 cfu/ml

O=C(O)c1cc(NC(=O)C2CCCCC2)ccc1O [compound 601, 5-cyclohexanoylamino-salicylic acid]
log reduction ([1]; contact time 24 h): 4.3 log | residual cell count ([1]; contact time 24 h): 9.1 × 10^2 cfu/ml | log reduction ([2]; contact time 24 h): 4.8 log | residual cell count ([2]; contact time 24 h): 6.1 × 10^2 cfu/ml | log reduction ([3]; contact time 24 h): >5 log | residual cell count ([3]; contact time 24 h): <100 cfu/ml
